Results as given in patent US7553826B2, “Cytarabine monophosphate prodrugs” (Metabasis Therapeutics, Inc., priority 2002, dated 2009).
≈ marks a conversion by molar mass, not a printed value.

Key:
[1] = Single IP injection liver targeting in rat; format: in vivo; conditions: 100 mg CE/kg single IP injection
[2] = Liver araCTP and liver targeting with continuous i.v. infusion in rats
Description: A saline filled blunt PE-50 tubing catheter (Intramedic, Becton Dickinson, Sparks, Md.) was inserted into the jugular vein, exteriorized between the scapulae and connected to a swivel-tethering constant infusion system (Lomir Biomedical, Inc., Malone, N.Y. and Harvard Apparatus, Inc., South Natick, Mass.). The tubing was filled with heparinized saline and sealed, and the animals allowed to recover for one to seven days.
After the various durations of infusion the animals were anesthetized by intra-catheter injections of the anesthetic mix described above. Blood samples were obtained via cardiac puncture using a 23-gauge needle attached to a heparin coated 3 cc syringe.
In those studies, liver, plasma and bone marrow samples were obtained at necropsy to evaluate liver targeting.
Results are expressed as mean±standard error of the mean. When appropriate, AUC was calculated from time zero to the last time-point of the study. Liver targeting indices (LTIs) were calculated by dividing the liver araCTP AUC by the AUC for plasma araC (plasma LTI) or by the AUC for bone marrow araCTP (bone marrow LTI) for each compound. For the continuous infusion studies, the steady state araCTP levels were divided by the steady state plasma araC levels.

Solubility = format: physicochemical
Protocol: With each of the three buffer systems, saturating solutions of Compound A and Compound B were prepared as follows. […] The resultant vials were sealed and equilibrated by tumbling at 25° C. for a minimum of 24 h. At the end of the incubation period, prodrug that was not in solution was removed from the samples by filtration through a 0.45 μm pore size nylon syringe filter. These diluted samples were assayed by the HPLC method of example E.

[3] = Rat acute toxicity, 24 hr continuous i.v. infusion; format: in vivo; conditions: rats, 2000 mg/kg/24 hrs continuous i.v. infusion
Protocol: Male and female Simonsen rats were instrumented for continuous infusion as described in Example C. On the day of treatment, the rats were hooked up to the constant infusion tether and given free access to food and water. Three male and three female rats were treated Compound A at a dose of 2000 mg/kg/24 hrs using a flow rate of 2.08 ml/kg/hr. Compound A was dissolved at 42.5 mg/ml in water and the pH adjusted to 4 with 1M HCl. The osmolarity was adjusted to ˜300 mOsm using 5M NaCl. As a control, 2 male rats were infused with pH 4 saline for the same period of time. The appearance and disposition of the rats was monitored regularly and notes about their behavior recorded every 1-3 hrs during the working day.
The animals were anesthetized in a chamber supplied via a Fluotec 3 vaporizer with 5% isoflurane (Abbot Laboratories, NDC 0074-3292-02) in 100% oxygen at a flow rate of 1.5 to 2 liters per minute. […] The blood from each animal was divided between K2-EDTA-containing microtainer tubes (Becton Dickinson, 36/5974) and microtainer tubes with gel separators for serum (Becton Dickinson, 36/5956) and lithium heparin for plasma collection (Becton Dickinson, 36/5958). If possible, urine was removed from the bladder using a 23-gauge needle attached to a 3 cc syringe. Tissue samples were collected in the following order: liver, kidneys, small intestine, bladder and bone marrow. The small intestine was divided into three equal portions to represent samples from the duodenum, jejunum and ileum; fecal matter was manually removed by gentle sliding pressure using a blunt forceps. From each tissue, a portion was placed in 10% buffered formalin for histology.
For cell counting, […] of EDTA-treated blood or PBS-suspended bone marrow flush was mixed with 450 μL or 950 μL, respectively, nuclear staining solution containing 0.19 mg/mL crystal violet (Sigma # C-1658, lot 112H3660) in 1 M acetic acid, and incubated at room temperature for at least 5 min. After brief vortexing, a 10 μl aliquot of the mixture was placed in a hemocytometer and cells were counted using a Nikon Optiphot-2 microscope. The blood samples were counted under a 40× objective to evaluate the number of mononuclear cells (lymphocytes and monocytes) and polymorphonuclear cells (PMN, including granulocytes of the neutrophil, eosinophil and basophil type). Nucleated bone marrow cells were counted under a 10× objective.
EDTA-treated blood samples were submitted to LabCorp (San Diego, Calif.) for hematology analysis including erythrocyte and platelet numbers, hemoglobin, and hematocrit. Serum chemistry analysis was also performed by LabCorp. […]

human liver microsomes = assay: Enzyme kinetics of prodrug activation to araCMP in human liver microsomes
[4] = rats, 200 mg CE/kg/day continuous intravenous infusion

SMILES: Nc1ccn([C@@H]2O[C@H](CO[P@@]3(=O)OCC[C@@H](c4ccncc4)O3)[C@@H](O)[C@@H]2O)c(=O)n1 [Compound A, 2(1H)-Pyrimidinone, 4-amino-1-[5-O-[(2R,4S)-2-oxido-4-(4-pyridinyl)-1,3,2-dioxaphosphorinan-2-yl]-β-D-arabinofuranosyl]]
- LTI (Liver/plasma) [1]: 19.2 nmol/g/μM
- Liver araCTP Peak @ 1 hr [1]: 267 nmol/g
- reduction of peripheral exposure (liver targeting) ([2]; administered by continuous intravenous infusion): ~10 fold
- LTI @ 24 hrs (Liver/plasma) [2, 4]: 7.5 nmol/g/μM
- Liver araCTP 24 hr [2, 4]: 12.0 nmol/g
- Liver araCTP @ 4 hr [2, 4]: 12.8 nmol/g
- Plasma Prodrug steady state [2, 4]: 40 to 50 µM
- Plasma araC steady state [2, 4]: ~1.6 µM
- steady state liver araCTP levels by 4 hours ([2]; rats, continuous infusion 200 mg/kg/24 hours): 12.84 ± 1.50 nmol/g
- average liver araCTP for the remaining 44 hours ([2]; rats, continuous infusion 200 mg/kg/24 hours, 48 hr): 13 ± 1 nmol/g
- solubility (Solubility; 0.5 M Pi pH 8.0 buffer, 25° C): 2.9 mg/mL (≈ 6.59 mM)
- solubility (Solubility; 0.5 M citrate pH 4.0, 25° C): 45.8 mg/mL (≈ 104 mM)
- solubility (Solubility; 0.5 M citrate pH 7.0, 25° C): 2.6 mg/mL (≈ 5.9 mM)
- serum chemistry and hematology parameters [3]: generally within normal ranges
- serum triglycerides levels [3]: outside the normal range
- overt toxicity ([3]; 24 hr treatment): no overt toxicity was noted
- tolerability ([3]; 24 hrs): well tolerated
- Vmax (human liver microsomes; activation to araCMP, 2 mg/mL human liver microsomes lot RQX, 1 mM NADPH, pH 7.4, 37° C, 5 min): 0.11 ± 0.02 nmol/min/mg
- Km (human liver microsomes; activation to araCMP, human liver microsomes lot RQX): 1080 ± 270 µM
- intrinsic clearance / activation rate relative to Compound B (human liver microsomes; human liver microsomes lot RQX): 2.6 fold
